Target: Carbonic anhydrase 2 (Bos taurus, UniProt P00921)
Assay: SPR biosensor assay Biacore T100
Conditions: 25 °C; for kon: pH 7.4, read-out: kon (M-1-s-1); for Kd: pH 7.4
From the text: SPR biosensor assay Biacore T100

Sequence of Carbonic anhydrase 2 (P00921 whole entry): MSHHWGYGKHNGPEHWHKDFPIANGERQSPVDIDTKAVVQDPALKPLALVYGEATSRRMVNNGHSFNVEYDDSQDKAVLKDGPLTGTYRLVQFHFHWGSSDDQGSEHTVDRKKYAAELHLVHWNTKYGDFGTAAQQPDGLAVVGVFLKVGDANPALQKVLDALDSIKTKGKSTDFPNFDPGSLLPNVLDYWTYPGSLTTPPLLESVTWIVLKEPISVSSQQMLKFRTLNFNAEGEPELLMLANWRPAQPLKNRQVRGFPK

Row | Compound | kon | Kd | koff (pH 7.4, read-out: koff (s-1))
1 | O=C1NNS(=O)(=O)c2ccccc21 [1,4-dioxo-1,2,3,4-tetrahydro-1,2,3-benzothiadiazin-1-ium-1-olate] | 1.94e+06 M⁻¹ s⁻¹ | 38900 nM | 
2 | Cn1cnc(S(N)(=O)=O)c1 [1-methyl-1H-imidazole-4-sulfonamide] | 164000 M⁻¹ s⁻¹ | 35300 nM | 4.65 s⁻¹
3 | NS(=O)(=O)c1ccc2c(c1)OCCO2 [2,3-dihydro-1,4-benzodioxine-6-sulfonamide] | 109000 M⁻¹ s⁻¹ | 817 nM | 
4 | NS(=O)(=O)c1ccc2c(c1)CCN2 [2,3-dihydro-1H-indole-5-sulfonamide] | 58500 M⁻¹ s⁻¹ | 3110 nM | 
5 | NS(=O)(=O)c1ccc(F)cc1F [2,4-difluorobenzene-1-sulfonamide] | 107000 M⁻¹ s⁻¹ | 394 nM | 
6 | Nc1nc2ccc(S(N)(=O)=O)cc2s1 [2-amino-1,3-benzothiazole-6-sulfonamide] | 19600 M⁻¹ s⁻¹ | 383 nM | 
7 | Cc1ccccc1S(N)(=O)=O [2-methylbenzene-1-sulfonamide] | 240000 M⁻¹ s⁻¹ | 2180 nM | 
8 | CCCn1c(=O)[nH]c2cc(S(N)(=O)=O)ccc21 [2-oxo-1-propyl-2,3-dihydro-1H-1,3-benzodiazole-5-sulfonamide] | 93500 M⁻¹ s⁻¹ | 197 nM | 
9 | NS(=O)(=O)c1cc(Cl)cc(Cl)c1 [3,5-dichlorobenzene-1-sulfonamide] | 259000 M⁻¹ s⁻¹ | 287 nM | 
10 | Cc1c(Cl)cc(F)cc1S(N)(=O)=O [3-chloro-5-fluoro-2-methylbenzene-1-sulfonamide] | 76300 M⁻¹ s⁻¹ | 96.8 nM | 
11 | Nc1ccc(S(N)(=O)=O)cn1 [6-aminopyridine-3-sulfonamide] | 203000 M⁻¹ s⁻¹ | 10800 nM | 
